From US20140121236A1, “Compositions and Methods for Treating Myotonic Dystrophy Type 1” (UNIVERSITY OF SOUTHERN CALIFORNIA, priority 2012, published 2014)

Assays:
DM1 myoblasts [1] = assay: Toxicity by shape and size of the nuclei of DM1 myoblasts; assay type: cell-based, human; set-up: key: −: Nontoxic; +: 10% alterations in nuclei shape and size; ++: 20-30% alterations in nuclei shape and size; +++: 40-50% alterations in nuclei shape and size; ++++: 60% alterations in nuclei shape and size; +++++: very sick, almost no surviving cells; settings: 4 days
DM1 myoblasts [2] = assay: Viability of DM1 myoblasts by counting surviving cells; assay type: cell-based, human; settings: 4 days, surviving cells vs vehicle control
[3] = test system: CUG-RNA foci in DM1 myoblasts; assay: FISH analysis of nuclear CUG-RNA foci in DM1 myoblasts; assay type: cell-based, human; settings: 4 days, FISH
Procedure: DM1 myoblasts were then treated with 10 μM of either RCN-001 or the vehicle (DMSO) for 4 days and then examined by FISH using a Cy3 (CAG)10 probe.
Normal myoblasts were purchased from Lonza, Inc. DM1 myoblasts were a gift from Dr. Charles Thornton. Normal and DM1 myoblasts were maintained in SkGM Medium (Lonza, Inc.) containing 10% Fetal Bovine Serum and 1% Penicillin-Streptomycin, 5% CO2 at 37° C. Human Embryonic Kidney 293 Cells (293HEK) were maintained in Dulbecco's Modification of Eagle's Medium (DMEM) from Cellgro supplemented with 10% Fetal Bovine Serum and 1% Penicillin-Streptomycin, 5% CO2 at 37° C.
CUG-RNA foci were detected by performing FISH on untreated DM1 myoblasts and DM1 myoblasts following treatment. For FISH analysis, DM1 myoblasts were plated on a 24-well clear bottom polystyrene plate with circular glass coverslips followed by treatment. Prior to FISH analysis, cells were fixed using 4% paraformaldehyde in 1×PBS for 20 min at room temperature. FISH analysis was performed using a Cy3 conjugated (CAG)10 oligonucleotide probe (Integrated DNA Technologies, Inc.) as described by Taneja et al, 1995 and Dansithong et al, 2005. CUG-RNA foci were observed as a red signal using fluorescence microscopy. Immunofluorescence was performed as described by Dansithong et al, 2008. Endogenous SHARP was detected using SHARP polyclonal antibodies from Bethyl at a dilution of 1:1000. The secondary antibodies conjugated with FITC (Invitrogen) were used at a 1:2000 dilution. Chloride channel 1 (Clcn1 a.k.a. CIC-1) was detected using CIC-1 polyclonal antibodies from Santa Cruz. The secondary antibodies conjugated with Alexa Flour 488 (Invitrogen) were used at a 1:2000 dilution. FISH analysis in mouse muscle section was carried out as described in Mancodi et al, 2000 (9).

[4] = test system: MBNL1 and MBNL2 RNA splicing in DM1 myoblasts; assay: Splicing assay (RT-PCR) for RNAs from DM1 myoblasts; assay type: cell-based, human; settings: 50 μM, 17 hours, RT-PCR
Procedure: A. Total RNA was isolated from normal (SKMC) myoblasts, untreated DM1 myoblasts and DM1 myoblasts treated with 50 μM RCN-001 or 50 μM Pentamidine for 17 hours and subjected to RT-PCR analysis using the indicated primers sets for MBNL1 and MBNL2 RNAs. GAPDH RNA was amplified in parallel as an internal control. The results of one of three experiments are shown. B. The relative levels of exon inclusion was measured by densitometry and tabulated as mean % exon inclusion +/− standard deviation.
Treatment of DM1 myoblasts with RCN-001 is also sufficient to rescue abnormal RNA splicing. Two RNAs were selected that show abnormal splicing in DM1 myoblasts: MBNL1 and MBNL2. DM1 myoblast were treated with 50 μM RCN-001 for 17 hours after which RNA was isolated and splice variants were analyzed as previously described (20-22).
Splicing assays for RNAs isolated from human myoblasts. DM1 patient myoblasts was treated with 50 μM of RCN-001 or Pentamidine for 17 h as described by Warf et al, 2009. Total RNA was isolated using the RNAeasy mini kit (Qiagen Inc., USA) following manufacture's protocol. cDNA was synthesized using 5 μg of total RNA using First-Strand cDNA synthesis kit (GE Healthcare). PCR amplification was carried out using 150 ng of cDNA for 35 cycles for each target RNA. The primers used for PCR amplification are as follows—
The relative band intensities were measured using densitometry analyses and the percent of exon inclusion was calculated as [exon inclusion/(exon inclusion+exon exclusion)]×100.

DM1 splicing defects = settings: literature reference 16 (Warf et al.); cited from earlier work

Compound: CCCCCCc1cc2cc(C(=O)Nc3ccc(Cl)c(Cl)c3)c(=O)oc2cc1O [RCN-017, N-(3,4-dichlorophenyl)-6-hexyl-7-hydroxy-2-oxo-2H-chromene-3-carboxamide]
- Toxicity: Toxic (DM1 myoblasts [1]; Table 2, 10 μM): +++++
- Toxicity: Viable (DM1 myoblasts [2]; Table 2, 10 μM): − (less than 10% cell survival)

Compound: CCCCCCc1cc2cc(-c3cn4ccccc4n3)c(=O)oc2cc1O [RCN-011, 6-hexyl-7-hydroxy-3-(imidazo[1,2-a]pyridine-2-yl)-2H-chromen-2-one]
- # of Foci (percentage) 0-1: Percentage of cells with no or 1 nuclear foci ([3]; Table 4, 10 μM): 17 percentage
- # of Foci (percentage) >2: Percentage of cells with 2 or greater nuclear foci ([3]; Table 4, 10 μM): 83 percentage
- Toxicity: Toxic (DM1 myoblasts [1]; Table 4, 10 μM): −
- Toxicity: Viable (DM1 myoblasts [2]; Table 4, 10 μM): +++++ (90-100% cell survival)

Compound: CCCCCCc1cc2cc(C(=O)Nc3cccc(Br)c3)c(=O)oc2cc1O [RCN-018, N-(3-bromophenyl)-6-hexyl-7-hydroxy-2-oxo-2H-chromene-3-carboxamide]
- Toxicity: Toxic (DM1 myoblasts [1]; Table 2, 10 μM): +++++
- Toxicity: Viable (DM1 myoblasts [2]; Table 2, 10 μM): − (less than 10% cell survival)

Compound: CCCCCCc1cc2cc(C(=O)Nc3cccc(OC)c3)c(=O)oc2cc1O [RCN-014, 6-hexyl-7-hydroxy-N-(3-methoxyphenyl)-2-oxo-2H-chromene-3-carboxamide]
- # of Foci (percentage) 0-1: Percentage of cells with no or 1 nuclear foci ([3]; Table 1, 10 μM): 24 percentage
- # of Foci (percentage) >2: Percentage of cells with 2 or greater nuclear foci ([3]; Table 1, 10 μM): 76 percentage
- # of Foci (percentage) 0-1: Percentage of cells with no or 1 nuclear foci ([3]; Table 2, 10 μM): 24 percentage
- # of Foci (percentage) >2: Percentage of cells with 2 or greater nuclear foci ([3]; Table 2, 10 μM): 76 percentage
- Toxicity: Toxic (DM1 myoblasts [1]; Table 1, 10 μM): + (10% alterations in nuclei shape and size)
- Toxicity: Toxic (DM1 myoblasts [1]; Table 2, 10 μM): + (10% alterations in nuclei shape and size)
- Toxicity: Viable (DM1 myoblasts [2]; Table 1, 10 μM): ++++ (70-80% cell survival)
- Toxicity: Viable (DM1 myoblasts [2]; Table 2, 10 μM): ++++ (70-80% cell survival)

Compound: CCCCCCc1cc2cc(-c3cn4ccc(C)cc4n3)c(=O)oc2cc1O [RCN-013, 6-hexyl-7-hydroxy-3-(7-methylimidazo[1,2-a]pyridine-2-yl)-2H-chromen-2-one]
- # of Foci (percentage) 0-1: Percentage of cells with no or 1 nuclear foci ([3]; Table 4, 10 μM): 13 percentage
- # of Foci (percentage) >2: Percentage of cells with 2 or greater nuclear foci ([3]; Table 4, 10 μM): 87 percentage
- Toxicity: Toxic (DM1 myoblasts [1]; Table 4, 10 μM): +++ (40-50% alterations in nuclei shape and size)
- Toxicity: Viable (DM1 myoblasts [2]; Table 4, 10 μM): +++ (50-60% cell survival)

Compound: CCN(CC)c1ccc2cc(-c3nnc(-c4ccc(Cl)cc4)o3)c(=O)oc2c1 [RCN-007, 3-(5-(4-chlorophenyl)-1,3,4-oxadiazol-2-yl)-7-(diethylamino)-2H-chromen-2-one]
- # of Foci (percentage) 0-1: Percentage of cells with no or 1 nuclear foci ([3]; Table 1, 10 μM): 17 percentage
- # of Foci (percentage) >2: Percentage of cells with 2 or greater nuclear foci ([3]; Table 1, 10 μM): 83 percentage
- Toxicity: Toxic (DM1 myoblasts [1]; Table 1, 10 μM): +++ (40-50% alterations in nuclei shape and size)
- Toxicity: Viable (DM1 myoblasts [2]; Table 1, 10 μM): +++ (50-60% cell survival)

Compound: CCCCCCc1cc2cc(C(=O)Nc3cccc(Cl)c3Cl)c(=N)oc2cc1O [RCN-016, N-(2,3-dichlorophenyl)-6-hexyl-7-hydroxy-2-imino-2H-chromene-3-carboxamide]
- # of Foci (percentage) 0-1: Percentage of cells with no or 1 nuclear foci ([3]; Table 2, 10 μM): 12 percentage
- # of Foci (percentage) >2: Percentage of cells with 2 or greater nuclear foci ([3]; Table 2, 10 μM): 88 percentage
- Toxicity: Toxic (DM1 myoblasts [1]; Table 2, 10 μM): ++ (20-30% alterations in nuclei shape and size)
- Toxicity: Viable (DM1 myoblasts [2]; Table 2, 10 μM): +++ (50-60% cell survival)

Compound: CCCCCCc1cc2cc(-c3nnc(-c4ccc([N+](=O)[O-])cc4)o3)c(=O)oc2cc1O [RCN--005]
- # of Foci (percentage) 0-1: Percentage of cells with no or 1 nuclear foci ([3]; Table 1, 10 μM): 14 percentage
- # of Foci (percentage) >2: Percentage of cells with 2 or greater nuclear foci ([3]; Table 1, 10 μM): 86 percentage
- Toxicity: Toxic (DM1 myoblasts [1]; Table 1, 10 μM): ++++ (60% alterations in nuclei shape and size)
- Toxicity: Viable (DM1 myoblasts [2]; Table 1, 10 μM): + (10-20% cell survival)

Compound: CCc1cc2c(CN3CCN(S(=O)(=O)Cc4ccccc4)CC3)cc(=O)oc2cc1O [RCN-020, 4-((4-(benzylsulfonyl)piperazin-1-yl)methyl)-6-ethyl-7-hydroxy-2H-chromen-2-one]
- # of Foci (percentage) 0-1: Percentage of cells with no or 1 nuclear foci ([3]; Table 3, 10 μM): 15 percentage
- # of Foci (percentage) >2: Percentage of cells with 2 or greater nuclear foci ([3]; Table 3, 10 μM): 85 percentage
- # of Foci (percentage) 0-1: Percentage of cells with no or 1 nuclear foci ([3]; Table 4, 10 μM): 15 percentage
- # of Foci (percentage) >2: Percentage of cells with 2 or greater nuclear foci ([3]; Table 4, 10 μM): 85 percentage
- Toxicity: Toxic (DM1 myoblasts [1]; Table 3, 10 μM): −
- Toxicity: Toxic (DM1 myoblasts [1]; Table 4, 10 μM): −
- Toxicity: Viable (DM1 myoblasts [2]; Table 3, 10 μM): +++++ (90-100% cell survival)
- Toxicity: Viable (DM1 myoblasts [2]; Table 4, 10 μM): +++++ (90-100% cell survival)

Compound: CCCCCCc1cc2cc(-c3nnc(-c4cccc(F)c4)o3)c(=O)oc2cc1O [RCN-004, 3-(5-(3-fluorophenyl)-1,3,4-oxadiazol-2-yl)-6-hexyl-7-hydroxy-2H-chromen-2-one]
- # of Foci (percentage) 0-1: Percentage of cells with no or 1 nuclear foci ([3]; Table 1, 10 μM): 29 percentage
- # of Foci (percentage) >2: Percentage of cells with 2 or greater nuclear foci ([3]; Table 1, 10 μM): 71 percentage
- Toxicity: Toxic (DM1 myoblasts [1]; Table 1, 10 μM): +++ (40-50% alterations in nuclei shape and size)
- Toxicity: Viable (DM1 myoblasts [2]; Table 1, 10 μM): ++ (30-40% cell survival)

Compound: N=C(N)c1ccc(OCCCCCOc2ccc(C(=N)N)cc2)cc1 [pentamidine, reference compound]
- rescue of abnormal splicing of MBNL1 and MBNL2 [4]: did not perform as well RCN-001
- rescue of DM1 splicing defects shown by others (DM1 splicing defects): partially rescue DM1 splicing defects

Compound: CCCCCCc1cc2cc(C(=O)Nc3ccc(Br)cc3)c(=O)oc2cc1O [RCN-015, N-(4-bromophenyl)-6-hexyl-7-hydroxy-2-oxo-2H-chromene-3-carboxamide]
- # of Foci (percentage) 0-1: Percentage of cells with no or 1 nuclear foci ([3]; Table 2, 10 μM): 29 percentage
- # of Foci (percentage) >2: Percentage of cells with 2 or greater nuclear foci ([3]; Table 2, 10 μM): 71 percentage
- Toxicity: Toxic (DM1 myoblasts [1]; Table 2, 10 μM): +++ (40-50% alterations in nuclei shape and size)
- Toxicity: Viable (DM1 myoblasts [2]; Table 2, 10 μM): +++ (50-60% cell survival)

Compound: O=c1oc2ccccc2cc1-c1nnc(-c2cccc(Br)c2)o1 [RCN-008, 3-(5-(3-bromophenyl)-1,3,4-oxadiazol-2-yl)-2H-chromen-2-one]
- # of Foci (percentage) 0-1: Percentage of cells with no or 1 nuclear foci ([3]; Table 3, 10 μM): 27 percentage
- # of Foci (percentage) >2: Percentage of cells with 2 or greater nuclear foci ([3]; Table 3, 10 μM): 23 percentage
- Toxicity: Toxic (DM1 myoblasts [1]; Table 3, 10 μM): +++ (40-50% alterations in nuclei shape and size)
- Toxicity: Viable (DM1 myoblasts [2]; Table 3, 10 μM): +++ (50-60% cell survival)

Compound: CCCCCCc1cc2cc(-c3csc(-c4nc(-c5cc6cc(CCCCCC)c(O)cc6oc5=O)cs4)n3)c(=O)oc2cc1O [RCN-012]
- # of Foci (percentage) 0-1: Percentage of cells with no or 1 nuclear foci ([3]; Table 4, 10 μM): 14 percentage
- # of Foci (percentage) >2: Percentage of cells with 2 or greater nuclear foci ([3]; Table 4, 10 μM): 86 percentage
- Toxicity: Toxic (DM1 myoblasts [1]; Table 4, 10 μM): −
- Toxicity: Viable (DM1 myoblasts [2]; Table 4, 10 μM): +++++ (90-100% cell survival)

Compound: CCCCCCc1cc2cc(C(N)=O)/c(=N/c3ccccc3OC)oc2cc1O [RCN-019, (Z)-6-hexyl-7-hydroxy-2-((2-methoxyphenyl)imino)-2H-chromene-3-carboxamide]
- # of Foci (percentage) 0-1: Percentage of cells with no or 1 nuclear foci ([3]; Table 2, 10 μM): 14 percentage
- # of Foci (percentage) >2: Percentage of cells with 2 or greater nuclear foci ([3]; Table 2, 10 μM): 86 percentage
- Toxicity: Toxic (DM1 myoblasts [1]; Table 2, 10 μM): ++ (20-30% alterations in nuclei shape and size)
- Toxicity: Viable (DM1 myoblasts [2]; Table 2, 10 μM): +++ (50-60% cell survival)

Compound: CCN(CC)c1ccc2cc(-c3nnc(-c4cc5ccccc5cc4O)o3)c(=O)oc2c1 [RCN-009, 7-(diethylamino)-3-(5-(3-hydroxynaphthalen-2-yl)-1,3,4-oxadiazol-2-yl)-2H-chromen-2-one]
- # of Foci (percentage) 0-1: Percentage of cells with no or 1 nuclear foci ([3]; Table 3, 10 μM): 11 percentage
- # of Foci (percentage) >2: Percentage of cells with 2 or greater nuclear foci ([3]; Table 3, 10 μM): 89 percentage
- Toxicity: Toxic (DM1 myoblasts [1]; Table 3, 10 μM): +++ (40-50% alterations in nuclei shape and size)
- Toxicity: Viable (DM1 myoblasts [2]; Table 3, 10 μM): ++ (30-40% cell survival)
